In patent US20230263758A1, “COMPOSITIONS OF EDTA HAVING ACTIVITY AGAINST PLANKTONIC AND BIOFILM CELLS OF CLINICALLY RELEVANT PATHOGENS” (SterileCare Inc., priority 2022, published 2023):
Structures can show the parent of a compound that is named as a salt.

How the values were obtained:
MRSA ON184 [1] = assay: Checkerboard, FMCI; assay type: cell-based, Staphylococcus aureus; settings: EDTA + chlorhexidine HCl
Procedure: (§1) An assay was made using a minimum inhibitory concentration (MIC) and minimum bactericidal concentration (MBC) and minimum fungicidal concentration (MFC) determination. The MIC was determined by the micro broth dilution method in 96-well plates. Serial two-fold dilutions of tetrasodium EDTA (from 2% to 0.015%), ethanol (from 50% to 0.1%) and chlorhexidine HCl (from 100 μg/mL to 0.025 μg/mL) were prepared in MH broth with a final volume of 90 μL per well. A 10 μL containing 1×10^5 bacterial cells or 2×10^3 fungal cells were added to each well. The inoculated plates were covered with a lid, sealed with Parafilm, and incubated for 24 h at 37° C. with slight rocking on a tilting platform shaker. After incubation, the optical density at 600 nm (OD 600) of the cultures in each well was measured using an xMark™ Microplate Absorbance Spectrophotometer (Bio-Rad). […] MBCs and MFCs were determined by transferring 100 μL from each well with no apparent growth onto appropriate agar plates, followed by incubation for 24 h at 37° C.
A fourth composition and solution included tetrasodium EDTA with ethanol or chlorhexidine HCl. […] The concentrations of antimicrobials used were based on previously determined MIC values. […] Microtiter plates were incubated at 37° C. for 24 h, and the results were analyzed. […]

C. albicans ON47 [2] = assay: MIC, micro broth dilution; assay type: cell-based, Candida albicans; settings: agent alone
Procedure: as §1

[3] = test system: Staphylococcus aureus ON89; assay: MBEC assay, 48-h biofilm; assay type: cell-based; settings: S. aureus ON89 48-h biofilm; 24 h exposure
Procedure: (§2) A biofilm cultivation cell composition was provided. This fifth composition was created using an MBEC Assay® biofilm inoculator, consisting of a polystyrene lid with 96 downward-protruding pegs and a corresponding base used to grow biofilms. A standardized inoculum was diluted in an appropriate biofilm growth medium to achieve a viable cell count of 1.5×10^6 CFU/mL of bacterial cells or 5×10^5 CFU/mL of fungal cells. Then, 150 μL of this inoculum was transferred into each appropriate well, and the peg lids were inserted into the microtiter plates. The plates were sealed with Parafilm and were incubated at optimum temperature for 48 h with slight rocking for bacteria and shaking at 200 rpm for fungal strains. After incubation, the peg lid was removed from the base and rinsed twice with sterile phosphate-buffered saline (PBS) for 2 min to remove loosely attached non-sessile cells. Before the antimicrobial challenge, the pegs in column 1 (n=8) were considered the biofilm growth control; these pegs were removed from the lids, placed into 200 μL of recovery medium, and analyzed for starting biofilm cell numbers as described below. The rinsed pegs were placed into new 96-well plates containing two-fold dilutions of antimicrobials such as tetrasodium EDTA (4%-0.0125%), ethanol (100%-0.2%), and chlorhexidine HCl (100 μg/mL-0.4 μg/mL) in 200 μL of suitable biofilm growth medium per well and incubated at optimum temperature for 24 h. After the antimicrobial challenge, the pegs were rinsed twice with sterile PBS for 2 min and placed into a new 96-well plate containing 200 μL of recovery medium. The recovery plates were sealed with Parafilm, and biofilm cells were dislodged from the pegs by sonication for 30 min with a Branson 3510 bath sonicator. The biofilm cells in the recovery medium were serially diluted, and a drop dilution assay was performed to enumerate the viable cells. MBEC values were determined as the minimum concentration of antimicrobials that yielded a viable cell count at or lower than the 125 CFU/mL detection limit.

[4] = test system: Staphylococcus epidermidis SK9; assay: MBEC assay, 48-h biofilm; assay type: cell-based; settings: S. epidermidis SK9 48-h biofilm; 24 h exposure
Procedure: as §2

Escherichia coli SK2 = assay: MBEC assay, 48-h biofilm; assay type: cell-based; settings: E. coli SK2 48-h biofilm; 24 h exposure
Procedure: as §2

Proteus mirabilis ON153 = assay: MBEC assay, 48-h biofilm; assay type: cell-based; settings: P. mirabilis ON153 48-h biofilm; 24 h exposure
Procedure: as §2

[5] = test system: Pseudomonas aeruginosa SK1; assay: MBEC assay, 48-h biofilm; assay type: cell-based; settings: P. aeruginosa SK1 48-h biofilm; 24 h exposure
Procedure: as §2

Candida albicans SK4b [6] = assay: MBEC assay, 48-h biofilm; assay type: cell-based; settings: C. albicans SK4b 48-h biofilm; 24 h exposure
Procedure: as §2

Serratia marcescens SK2 = assay: MIC, micro broth dilution; assay type: cell-based; settings: S. marcescens SK2; agent alone
Procedure: as §1

[7] = test system: Stenotrophomonas maltophilia ON17; assay: MIC, micro broth dilution; assay type: cell-based; settings: S. maltophilia ON17; agent alone
Procedure: as §1

Candida albicans SK4b [8] = assay: Checkerboard FBEC index, 48-h biofilm; assay type: cell-based; settings: C. albicans SK4b biofilm; EDTA + chlorhexidine HCl
Procedure: (§4) In step (4), microtiter plates are incubated at 37° C. for 24 h. then (6), after incubation, the bacterial and fungal cells were dislodged from the pegs into the recovery medium described above.
(§5) Three 10-μL aliquots, for a total of 30 μL from each well of recovery medium, were spotted on MH agar plates and incubated for 24 h at 37° C. […] The FBEC determination is a modification of the FICI.

MRSA ON184 [9] = assay: MBC/MFC determination; assay type: cell-based, Staphylococcus aureus; settings: agent alone
Procedure: as §1

E. coli SK2 [10] = assay: MIC, micro broth dilution; assay type: cell-based, Escherichia coli; settings: agent alone
Procedure: as §1

MRSA ON184 [11] = assay: MBEC assay, 48-h biofilm; assay type: cell-based, Staphylococcus aureus; settings: MRSA ON184 48-h biofilm; 24 h exposure
Procedure: (§3) A biofilm cultivation cell composition was provided. This fifth composition was created using an MBEC Assay® biofilm inoculator, consisting of a polystyrene lid with 96 downward-protruding pegs and a corresponding base used to grow biofilms. A standardized inoculum was diluted in an appropriate biofilm growth medium to achieve a viable cell count of 1.5×10^6 CFU/mL of bacterial cells or 5×10^5 CFU/mL of fungal cells. Then, 150 μL of this inoculum was transferred into each appropriate well, and the peg lids were inserted into the microtiter plates. The plates were sealed with Parafilm and were incubated at optimum temperature for 48 h with slight rocking for bacteria and shaking at 200 rpm for fungal strains. After incubation, the peg lid was removed from the base and rinsed twice with sterile phosphate-buffered saline (PBS) for 2 min to remove loosely attached non-sessile cells. Before the antimicrobial challenge, the pegs in column 1 (n=8) were considered the biofilm growth control; these pegs were removed from the lids, placed into 200 μL of recovery medium, and analyzed for starting biofilm cell numbers as described below. […] MBEC values were determined as the minimum concentration of antimicrobials that yielded a viable cell count at or lower than the 125 CFU/mL detection limit.

MRSA ON184 [12] = assay: Checkerboard FBEC index, 48-h biofilm; assay type: cell-based, Staphylococcus aureus; settings: EDTA + chlorhexidine HCl
Procedure: as §4, §5

C. albicans ON47 [13] = assay: MBC/MFC determination; assay type: cell-based, Candida albicans; settings: agent alone
Procedure: as §1

E. coli SK2 [14] = assay: MBC/MFC determination; assay type: cell-based, Escherichia coli; settings: agent alone
Procedure: as §1

S. epidermidis SK9 [15] = assay: MBC/MFC determination; assay type: cell-based, Staphylococcus epidermidis; settings: agent alone
Procedure: as §1

C. albicans ON47 [16] = assay: MBEC assay, 48-h biofilm; assay type: cell-based, Candida albicans; settings: C. albicans ON47 48-h biofilm; 24 h exposure
Procedure: as §3

S. epidermidis SK9 [17] = assay: MIC, micro broth dilution; assay type: cell-based, Staphylococcus epidermidis; settings: agent alone
Procedure: as §1

Row | Compound | Microbicidal concentration in combination (MRSA ON184 [1]) | MIC (C. albicans ON47 [2]) | MBEC [3] | MBEC [4] | MBEC (Escherichia coli SK2) | MBEC (Proteus mirabilis ON153) | MBEC [5] | MBEC (Candida albicans SK4b [6]) | MIC (Serratia marcescens SK2) | MIC [7] | Biofilm eradication concentration in combination (FBEC) (Candida albicans SK4b [8]) | MBC/MFC (MRSA ON184 [9]) | MIC (E. coli SK2 [10]) | MBEC (MRSA ON184 [11]) | Biofilm eradication concentration in combination (FBEC) (MRSA ON184 [12]) | MBC/MFC (C. albicans ON47 [13]) | MBC/MFC (E. coli SK2 [14]) | MBC/MFC (S. epidermidis SK9 [15]) | MBEC (C. albicans ON47 [16]) | MIC (S. epidermidis SK9 [17])
1 | [H]/N=C(\N/C(=N/[H])NCCCCCCNC(=N)NC(=N)Nc1ccc(Cl)cc1)Nc1ccc(Cl)cc1 [Chlorhexidine HCl, chlorhexidine HCl, reference compound] | 0.4 µg/mL | – | – | – | – | – | – | – | – | – | – | – | – | – | – | – | – | – | – | –
2 | O=C([O-])CN(CCN(CC(=O)[O-])CC(=O)[O-])CC(=O)[O-].[Na+].[Na+].[Na+].[Na+] [EDTA, tetrasodium EDTA] | – | 1 % w/v | 4 % w/v | 2 % w/v | 2 % w/v | 4 % w/v | 4 % w/v | 1 % w/v | 2 % w/v | 0.063 % w/v | 0.063 % w/v | 2 % w/v | 0.5 % w/v | 2 % w/v | 0.031 % w/v | 1 % w/v | 0.5 % w/v | 0.5 % w/v | 1 % w/v | 0.063 % w/v
